Experimental data: article PMC5986654, “Combined HAT/EZH2 modulation leads to cancer-selective cell death” (Oncotarget, 2018)

How the values were obtained:
leukemia NB4 cells = test: Cell death induction in NB4 cells (FACS, pre-G1); format: cell-based, human; conditions: for % Cell death NB4 cells: 3 μM, 30 h; for effect on cell death, single inhibitor: C646 5 µM, GSK126 10 µM, used separately
[1] = tested on: neuroblastoma SHSY5Y cells; test: Cell death induction in SHSY5Y cells; format: cell-based; conditions: 3 μM, 48 h
Description: When tested in neuroblastoma SHSY5Y cells at tetrahydro-4H -pyran-4-one MC2912 failed in inducing
3 μM for 48 h, MC2884 and its analogues furnished cell death in SHSY5Y cells, whereas its thio-analogue
(Supplementary SAR Table 1). In general, the SHSY5Y similarly to what observed in NB4 cells.
than NB4 cells. Anyway, also in this cell line the death in both cell lines such as MC2910, 2912, 2909,
(MC2909), and bis 3,5-dibromophenyl (MC2910) were acetylation and EZH2 deregulation (SAR Figure 2). In […]
3-phenyl-1-propan-1-one chain at N1 (MC3187), which 3).

pCAF = pCAF (Homo sapiens, UniProt Q92831); test: HAT in vitro assay, 10-dose IC50, pCAF; format: biochemical; conditions: substrate Histone H3, 3 μM Acetyl-CoA; read-out: Compound IC50 pCAF
Description: (§1) For HAT in vitro assay, MC2884 activity was also tested in vitro and IC50 was calculated as indicated in the scheme. […] Reactions were carried out at 3 μM Acetyl-CoA. Empty cells indicate no inhibition or compound activity that could not be fit to an IC50 curve.

GCN5 = GCN5 (Homo sapiens, UniProt Q92830); test: HAT in vitro assay, 10-dose IC50, GCN5; format: biochemical; conditions: substrate Histone H3, 3 μM Acetyl-CoA; read-out: Compound IC50 GCN5
Description: as §1

CBP = CBP (Homo sapiens, UniProt Q92793); test: HAT in vitro assay, 10-dose IC50, CBP; format: biochemical; conditions: substrate Histone H3, 3 μM Acetyl-CoA; read-out: Compound IC50 CBP
Description: as §1

KAT5 = KAT5 (Homo sapiens, UniProt Q92993); test: HAT in vitro assay, 10-dose IC50, KAT5; format: biochemical; conditions: substrate Histone H2A, 3 μM Acetyl-CoA; read-out: Compound IC50 KAT5
Description: as §1

Sequence of pCAF (Q92831 whole entry): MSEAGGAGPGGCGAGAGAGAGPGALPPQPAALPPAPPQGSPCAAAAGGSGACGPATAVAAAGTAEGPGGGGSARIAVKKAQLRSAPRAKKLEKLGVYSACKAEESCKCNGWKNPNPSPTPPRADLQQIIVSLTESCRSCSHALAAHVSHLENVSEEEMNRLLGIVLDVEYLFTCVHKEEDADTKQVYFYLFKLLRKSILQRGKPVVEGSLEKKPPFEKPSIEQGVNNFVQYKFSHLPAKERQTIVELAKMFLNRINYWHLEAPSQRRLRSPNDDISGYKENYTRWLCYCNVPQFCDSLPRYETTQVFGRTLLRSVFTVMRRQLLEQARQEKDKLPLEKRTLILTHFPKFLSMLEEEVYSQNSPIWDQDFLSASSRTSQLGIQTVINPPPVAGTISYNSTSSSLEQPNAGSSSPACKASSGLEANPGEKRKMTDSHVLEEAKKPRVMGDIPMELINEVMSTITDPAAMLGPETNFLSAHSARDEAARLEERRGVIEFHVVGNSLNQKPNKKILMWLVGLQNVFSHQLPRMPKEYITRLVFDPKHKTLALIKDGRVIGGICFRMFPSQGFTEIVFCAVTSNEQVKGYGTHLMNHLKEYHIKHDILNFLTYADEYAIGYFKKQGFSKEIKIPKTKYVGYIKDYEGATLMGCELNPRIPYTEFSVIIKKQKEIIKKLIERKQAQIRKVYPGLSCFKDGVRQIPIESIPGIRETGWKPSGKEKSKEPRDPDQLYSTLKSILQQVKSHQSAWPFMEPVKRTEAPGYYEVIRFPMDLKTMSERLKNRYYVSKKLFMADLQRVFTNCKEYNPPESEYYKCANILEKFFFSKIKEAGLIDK
Sequence of KAT5 (Q92993 whole entry): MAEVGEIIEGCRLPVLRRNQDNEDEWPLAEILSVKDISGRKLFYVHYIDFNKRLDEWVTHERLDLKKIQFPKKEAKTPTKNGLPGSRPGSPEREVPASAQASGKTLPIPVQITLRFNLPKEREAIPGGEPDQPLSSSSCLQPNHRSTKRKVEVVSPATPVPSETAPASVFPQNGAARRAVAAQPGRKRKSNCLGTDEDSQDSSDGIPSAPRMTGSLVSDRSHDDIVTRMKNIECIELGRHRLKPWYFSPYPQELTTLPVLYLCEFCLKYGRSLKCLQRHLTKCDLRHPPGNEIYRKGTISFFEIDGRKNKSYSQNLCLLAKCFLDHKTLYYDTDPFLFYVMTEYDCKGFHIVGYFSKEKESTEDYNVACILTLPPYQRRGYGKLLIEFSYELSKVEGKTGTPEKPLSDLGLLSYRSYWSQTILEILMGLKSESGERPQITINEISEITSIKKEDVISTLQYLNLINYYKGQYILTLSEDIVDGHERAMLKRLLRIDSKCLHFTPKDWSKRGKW
Sequence of CBP (Q92793 whole entry): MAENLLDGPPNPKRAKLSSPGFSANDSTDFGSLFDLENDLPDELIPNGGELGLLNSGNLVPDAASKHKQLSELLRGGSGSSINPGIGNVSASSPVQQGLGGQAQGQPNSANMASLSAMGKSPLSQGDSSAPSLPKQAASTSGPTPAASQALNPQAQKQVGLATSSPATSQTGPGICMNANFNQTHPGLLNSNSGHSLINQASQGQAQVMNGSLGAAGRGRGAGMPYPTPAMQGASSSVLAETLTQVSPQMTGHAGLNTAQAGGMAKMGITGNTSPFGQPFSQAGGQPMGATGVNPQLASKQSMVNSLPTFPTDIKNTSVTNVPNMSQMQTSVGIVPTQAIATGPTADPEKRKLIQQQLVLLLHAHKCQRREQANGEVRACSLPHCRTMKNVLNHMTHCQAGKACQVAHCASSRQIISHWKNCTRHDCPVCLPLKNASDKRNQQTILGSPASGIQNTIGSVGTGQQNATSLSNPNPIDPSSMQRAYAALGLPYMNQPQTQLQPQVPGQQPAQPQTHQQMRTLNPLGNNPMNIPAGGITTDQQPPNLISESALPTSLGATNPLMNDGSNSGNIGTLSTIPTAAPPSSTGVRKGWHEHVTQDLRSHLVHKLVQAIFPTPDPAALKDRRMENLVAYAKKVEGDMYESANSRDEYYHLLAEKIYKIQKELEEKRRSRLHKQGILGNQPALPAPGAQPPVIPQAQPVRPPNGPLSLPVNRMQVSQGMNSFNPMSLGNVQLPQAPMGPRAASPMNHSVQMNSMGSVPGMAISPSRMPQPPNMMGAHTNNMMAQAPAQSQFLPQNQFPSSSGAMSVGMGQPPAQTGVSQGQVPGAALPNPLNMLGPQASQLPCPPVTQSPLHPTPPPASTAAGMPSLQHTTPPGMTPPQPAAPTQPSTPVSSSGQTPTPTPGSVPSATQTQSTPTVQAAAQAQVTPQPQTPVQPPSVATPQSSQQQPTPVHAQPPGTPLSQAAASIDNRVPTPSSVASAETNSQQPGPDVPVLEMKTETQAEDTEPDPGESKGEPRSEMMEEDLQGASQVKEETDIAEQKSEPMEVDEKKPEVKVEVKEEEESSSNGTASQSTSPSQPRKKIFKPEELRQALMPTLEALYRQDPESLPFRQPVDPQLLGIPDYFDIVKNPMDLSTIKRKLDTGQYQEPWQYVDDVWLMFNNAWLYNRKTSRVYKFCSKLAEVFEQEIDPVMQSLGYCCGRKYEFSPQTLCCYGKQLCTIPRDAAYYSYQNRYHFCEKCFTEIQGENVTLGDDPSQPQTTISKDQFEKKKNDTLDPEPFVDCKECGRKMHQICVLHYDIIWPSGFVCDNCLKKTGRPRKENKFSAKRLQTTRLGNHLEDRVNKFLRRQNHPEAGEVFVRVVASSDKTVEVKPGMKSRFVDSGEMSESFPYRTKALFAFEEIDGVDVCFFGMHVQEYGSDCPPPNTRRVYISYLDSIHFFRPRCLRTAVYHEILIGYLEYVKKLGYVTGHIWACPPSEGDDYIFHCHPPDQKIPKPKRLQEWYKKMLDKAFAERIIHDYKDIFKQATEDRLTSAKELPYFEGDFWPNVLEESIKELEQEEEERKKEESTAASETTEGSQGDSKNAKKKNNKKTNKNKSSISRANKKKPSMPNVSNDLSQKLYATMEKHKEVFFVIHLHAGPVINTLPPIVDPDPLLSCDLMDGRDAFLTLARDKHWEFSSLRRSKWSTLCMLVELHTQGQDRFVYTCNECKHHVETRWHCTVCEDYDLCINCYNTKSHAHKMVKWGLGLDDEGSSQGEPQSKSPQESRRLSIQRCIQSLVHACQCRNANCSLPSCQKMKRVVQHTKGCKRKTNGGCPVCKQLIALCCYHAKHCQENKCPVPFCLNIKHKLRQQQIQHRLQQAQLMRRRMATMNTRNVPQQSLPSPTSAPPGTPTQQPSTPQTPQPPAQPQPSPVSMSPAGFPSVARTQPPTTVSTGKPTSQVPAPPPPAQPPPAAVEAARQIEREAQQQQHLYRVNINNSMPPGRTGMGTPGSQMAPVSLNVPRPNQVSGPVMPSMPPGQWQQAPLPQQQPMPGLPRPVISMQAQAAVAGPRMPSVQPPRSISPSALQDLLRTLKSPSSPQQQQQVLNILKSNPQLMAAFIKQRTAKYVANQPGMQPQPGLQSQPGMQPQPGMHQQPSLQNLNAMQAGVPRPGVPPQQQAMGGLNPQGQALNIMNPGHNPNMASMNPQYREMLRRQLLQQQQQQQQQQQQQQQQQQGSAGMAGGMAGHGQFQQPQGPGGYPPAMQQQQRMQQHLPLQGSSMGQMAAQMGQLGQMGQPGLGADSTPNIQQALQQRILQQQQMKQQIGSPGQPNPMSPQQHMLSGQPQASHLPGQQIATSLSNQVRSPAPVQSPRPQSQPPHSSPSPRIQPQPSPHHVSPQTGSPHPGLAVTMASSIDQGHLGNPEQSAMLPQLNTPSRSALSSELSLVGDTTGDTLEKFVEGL
Sequence of GCN5 (Q92830 whole entry): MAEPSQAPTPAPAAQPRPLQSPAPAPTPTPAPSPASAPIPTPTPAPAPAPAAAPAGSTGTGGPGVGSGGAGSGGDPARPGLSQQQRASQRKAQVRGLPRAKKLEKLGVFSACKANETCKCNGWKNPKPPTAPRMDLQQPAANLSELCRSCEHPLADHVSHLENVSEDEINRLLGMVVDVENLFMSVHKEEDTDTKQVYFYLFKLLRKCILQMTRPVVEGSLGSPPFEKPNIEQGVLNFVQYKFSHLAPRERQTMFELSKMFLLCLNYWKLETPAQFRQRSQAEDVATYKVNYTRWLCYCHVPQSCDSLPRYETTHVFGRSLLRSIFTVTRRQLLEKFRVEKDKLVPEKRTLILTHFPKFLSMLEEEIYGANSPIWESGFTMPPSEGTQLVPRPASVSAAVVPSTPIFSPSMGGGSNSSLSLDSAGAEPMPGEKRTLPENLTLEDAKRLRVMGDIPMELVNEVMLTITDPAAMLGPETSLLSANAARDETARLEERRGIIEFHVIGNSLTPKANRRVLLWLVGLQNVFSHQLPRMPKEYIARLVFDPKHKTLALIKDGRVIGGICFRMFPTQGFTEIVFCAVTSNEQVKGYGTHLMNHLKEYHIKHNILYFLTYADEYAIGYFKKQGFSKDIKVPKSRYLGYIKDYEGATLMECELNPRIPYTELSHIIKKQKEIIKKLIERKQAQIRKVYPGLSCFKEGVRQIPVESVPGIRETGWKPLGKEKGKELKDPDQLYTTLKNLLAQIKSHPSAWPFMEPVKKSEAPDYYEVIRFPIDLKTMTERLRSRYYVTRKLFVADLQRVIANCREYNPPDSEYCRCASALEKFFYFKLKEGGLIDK

Row | Structure (SMILES) | % Cell death NB4 cells (leukemia NB4 cells) | % Cell death SHSY5Y cells [1] | further results
1 | O=C1C(=Cc2cccc(Br)c2)CN(C(=O)CCc2ccccc2)CC1=Cc1cccc(Br)c1 [MC3187] | 28.9% | 19.9% | –
2 | CC[C@H](C)n1cc(C)c2c(C(=O)NCc3c(C)cc(C)[nH]c3=O)cc(-c3ccc(N4CCNCC4)nc3)cc21 [GSK126, reference compound] | – | – | effect on cell death, single inhibitor (leukemia NB4 cells; NB4 cells): no effects
3 | CCCCCCCCCCCCCCCc1cccc(O)c1C(=O)O [Anacardic Acid] | – | – | IC50 (pCAF): 38.8 µM; IC50 (GCN5): 38.6 µM
4 | O=C1C(=Cc2ccccc2Br)CN(Cc2ccccc2)CC1=Cc1ccccc1Br [MC2908] | 30.3% | 9.2% | –
5 | O=C1C(=Cc2ccc(Br)cc2)CN(Cc2ccccc2)CC1=Cc1ccc(Br)cc1 [MC2909] | 8.8% | 4.7% | –
6 | O=C1C(=Cc2cccc(Br)c2)CSCC1=Cc1cccc(Br)c1 [MC2913] | 52.7% | 23.9% | –
7 | O=C1/C(=C/c2ccc(O)cc2Br)CN(Cc2ccccc2)C/C1=C\c1ccc(O)cc1Br [MC3395] | 0,53% | 1,0% | –
8 | CN(C)CC[C@H](CSc1ccccc1)Nc1ccc(S(=O)(=O)NC(=O)c2ccc(N3CCN(Cc4ccccc4-c4ccc(Cl)cc4)CC3)cc2)cc1[N+](=O)[O-] [ABT-737, reference compound] | – | – | cell death, ABT-737 with addition of MC2884 (leukemia NB4 cells; NB4 cells, ABT-737 1 µM plus MC2884 at concentrations that alone induced little apoptosis): up to 60%
9 | O=C1C(=Cc2cccc(Br)c2)CN(C(=O)c2ccccc2)CC1=Cc1cccc(Br)c1 [MC3146] | 13.2% | 5.6% | –
10 | O=C(/C=C/c1ccc(Br)cc1)/C=C/c1ccc(Br)cc1 [MC2886] | 0,56% | 1,2% | –
11 | O=C1/C(=C/c2cccc(Br)c2)CCC/C1=C\c1cccc(Br)c1 [MC2911] | 0,76% | 0,8% | –
12 | CC1=NN(c2ccc(C(=O)O)cc2)C(=O)/C1=C\c1ccc(-c2cc(C)c(C)cc2[N+](=O)[O-])o1 [C646, reference compound] | – | – | IC50 (CBP): 78.7 nM; effect on cell death, single inhibitor (leukemia NB4 cells; NB4 cells): no effects; IC50 (KAT5): 20.4 µM
13 | O=C1C(=Cc2cccc(Br)c2)CN(CCc2ccccc2)CC1=Cc1cccc(Br)c1 [MC3269] | 62.5% | 19.2% | –
14 | O=C1C(=Cc2cccc(Br)c2)CN(CC(=O)c2ccccc2)CC1=Cc1cccc(Br)c1 [MC3207] | 38% | 7.0% | –
15 | CN1CC(=Cc2cccc(Br)c2)C(=O)C(=Cc2cccc(Br)c2)C1 [MC2914] | 36% | 9.0% | –
